Target: T1, FXR ligand binding domain (Homo sapiens, UniProt Q96RI1)
T1 construct: made in house; host or cells: E. coli BL21 (pLysS)
T1 sequence (Q96RI1 193-472 isoform Q96RI1-2): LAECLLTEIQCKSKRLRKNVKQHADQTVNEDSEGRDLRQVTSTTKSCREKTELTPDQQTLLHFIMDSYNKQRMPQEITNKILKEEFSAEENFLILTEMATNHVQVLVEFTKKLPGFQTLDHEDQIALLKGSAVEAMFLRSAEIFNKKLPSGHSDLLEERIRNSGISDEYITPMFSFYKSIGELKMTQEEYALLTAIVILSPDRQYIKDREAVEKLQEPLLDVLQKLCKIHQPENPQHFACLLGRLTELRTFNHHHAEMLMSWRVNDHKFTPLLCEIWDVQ
Experiment: Radioligand Binding Assay (scintillation proximity radioligand displacement)
Conditions: GST-FXR LBD fusion protein on SPA beads, test compound 6×10^−9 M to 2.5×10^−5 M
Protocol: The following tests were carried out in order to determine the activity of the compounds of formula (I). Background information on the binding assay can be found in: Nichols J S et al. “Development of a scintillation proximity assay for peroxisome proliferator-activated receptor gamma ligand binding domain”, (1998) Anal. Biochem. 257: 112-119.
Bacterial and mammalian expression vectors were constructed to produce glutathione-s-transferase (GST) and Gal4 DNA binding domain (GAL) proteins fused to the ligand binding domain (LBD) of human FXR (aa 193-473). To accomplish this, the portions of the sequences encoding the FXR LBD were amplified by polymerase chain reaction (PCR) from a full-length clone by PCR and then subcloned into the plasmid vectors. The final clone was verified by DNA sequence analysis.
The induction, expression, and subsequent purification of GST-LBD fusion protein was performed in E. coli strain BL21 (pLysS) cells by standard methods (Current Protocols in Molecular Biology, Wiley Press, ed. Ausubel et al.).
Radioligand Binding Assay
Binding of test substances to the FXR ligand binding domain was assessed in a radioligand displacement assay. The assay was performed in a buffer consisting of 50 mM Hepes, pH 7.4, 10 mM NaCl, 5 mM MgCl2, 0.01% CHAPS. For each reaction well in a 96-well plate, 40 nM of GST-FXR LBD fusion protein was bound to […] glutathione ytrium silicate SPA beads (PharmaciaAmersham) in a final volume of […] by shaking. A radioligand (e.g., 20 nM of 2,N-dicyclohexyl-2-[2-(2,4 dimethoxy-phenyl)-benzoimidazol-1-yl]-acetamide) and test compounds were added, and scintillation proximity counting was performed. All binding assays were performed in 96-well plates and the amount of bound ligand was measured on a Packard TopCount using OptiPlates (Packard). Dose response curves were performed within a range of test compound concentrations from 6×10^−9 M to 2.5×10^−5 M and IC50 values were calculated.

IC50 [nM]	SMILES
200	O=C(O)Cc1ccc(COc2cc(Cl)ccc2-c2nc3cc(F)c(F)cc3n2CC2CCCCC2)cc1 [Example 28, {4-[5-Chloro-2-(1-cyclohexylmethyl-5,6-difluoro-1H-benzoimidazol-2-yl)-phenoxymethyl]-phenyl}-acetic acid]
700	O=C(O)C1CCC(COc2cc(Cl)ccc2-c2nc3cc(F)c(F)cc3n2CC2CCCCC2)CC1 (stereo not drawn) [Example 29, 4-[5-Chloro-2-(1-cyclohexylmethyl-5,6-difluoro-1H-benzoimidazol-2-yl)-phenoxymethyl]-cyclohexane carboxylic acid]
400	Fc1cc2nc(-c3ccc(Cl)cc3OCc3cccc(-c4nnn[nH]4)c3)n(CC3CCCCC3)c2cc1F [Example 30, 2-{4-Chloro-2-[3-(1H-tetrazol-5-yl)-benzyloxy]-phenyl}-1-cyclohexylmethyl-5,6-difluoro-1H-benzoimidazole]
50	Fc1cc2nc(-c3ccc(Cl)cc3OCc3ccc(-c4nnn[nH]4)cc3)n(CC3CCCCC3)c2cc1F [Example 31, 2-{4-Chloro-2-[4-(1H-tetrazol-5-yl)-benzyloxy]-phenyl}-1-cyclohexylmethyl-5,6-difluoro-1H-benzoimidazole]
10	Fc1cc2nc(-c3ccc(Cl)cc3OCc3ccc(-c4nnn[nH]4)cc3F)n(CC3CCCCC3)c2cc1F [Example 32, 2-{4-Chloro-2-[2-fluoro-4-(1H-tetrazol-5-yl)-benzyloxy]-phenyl}-1-cyclohexylmethyl-5,6-difluoro-1H-benzoimidazole]
40	Fc1cc2nc(-c3ccc(Cl)cc3OCc3ccc(-c4nnn[nH]4)c(F)c3)n(CC3CCCCC3)c2cc1F [Example 33, 2-{4-Chloro-2-[3-fluoro-4-(1H-tetrazol-5-yl)-benzyloxy]-phenyl}-1-cyclohexylmethyl-5,6-difluoro-1H-benzoimidazole]
30	Fc1cc2nc(-c3ccccc3OCc3ccc(-c4nnn[nH]4)cc3F)n(CC3CCCCC3)c2cc1F [Example 34, 1-Cyclohexylmethyl-5,6-difluoro-2-{2-[2-fluoro-4-(1H-tetrazol-5-yl)-benzyloxy]-phenyl}-1H-benzoimidazole]
50	COc1cc(-c2nnn[nH]2)ccc1COc1cc(Cl)ccc1-c1nc2cc(F)c(F)cc2n1CC1CCCCC1 [Example 35, 2-{4-Chloro-2-[2-methoxy-4-(1H-tetrazol-5-yl)-benzyloxy]-phenyl}-1-cyclohexylmethyl-5,6-difluoro-1H-benzoimidazole]
90	Fc1cc2nc(-c3ccc(Cl)cc3OCCc3ccc(-c4nnn[nH]4)cc3)n(CC3CCCCC3)c2cc1F [Example 36, 2-(4-Chloro-2-{2-[4-(1H-tetrazol-5-yl)-phenyl]-ethoxy}-phenyl)-1-cyclohexylmethyl-5,6-difluoro-1H-benzoimidazole]
200	Fc1cc2nc(-c3ccc(Cl)cc3OCc3ccc(-c4nnn[nH]4)s3)n(CC3CCCCC3)c2cc1F [Example 37, 2-{4-Chloro-2-[5-(1H-tetrazol-5-yl)-thiophen-2-ylmethoxy]-phenyl}-1-cyclohexylmethyl-5,6-difluoro-1H-benzoimidazole]
200	Fc1cc2nc(-c3ccc(Cl)cc3OCc3ccc(-c4nnn[nH]4)cc3C(F)(F)F)n(CC3CCCCC3)c2cc1F [Example 38, 2-{4-Chloro-2-[4-(1H-tetrazol-5-yl)-2-trifluoromethyl-benzyloxy]-phenyl}-1-cyclohexylmethyl-5,6-difluoro-1H-benzoimidazole]
30	Fc1cc(-c2nnn[nH]2)ccc1COc1cc(Cl)ccc1-c1nc2ccccc2n1CC1CCCCC1 [Example 39, 2-{4-Chloro-2-[2-fluoro-4-(1H-tetrazol-5-yl)-benzyloxy]-phenyl}-1-cyclohexylmethyl-1H-benzoimidazole]
4	Fc1cc2nc(-c3ccccc3COc3ccc(-c4nnn[nH]4)cc3F)n(CC3CCCCC3)c2cc1F [Example 40, 1-Cyclohexylmethyl-5,6-difluoro-2-{2-[2-fluoro-4-(1H-tetrazol-5-yl)-phenoxymethyl]-phenyl}-1H-benzoimidazole]
200	Fc1cc2nc(-c3ccccc3COc3ccc(-c4nnn[nH]4)c(F)c3)n(CC3CCCCC3)c2cc1F [Example 41, 1-Cyclohexylmethyl-5,6-difluoro-2-{2-[3-fluoro-4-(1H-tetrazol-5-yl)-phenoxymethyl]-phenyl}-1H-benzoimidazole]
40	Fc1cc2nc(-c3ccc(Cl)cc3OCc3ccc(-c4nnn[nH]4)cc3F)n(CC3CCCC3)c2cc1F [Example 42, 2-{4-Chloro-2-[2-fluoro-4-(1H-tetrazol-5-yl)-benzyloxy]-phenyl}-1-cyclopentylmethyl-5,6-difluoro-1H-benzoimidazole]
90	Fc1cc2nc(-c3ccc(Cl)cc3OCc3ccc(-c4nnn[nH]4)cc3F)n(CCC3CCCCC3)c2cc1F [Example 43, 2-{4-Chloro-2-[2-fluoro-4-(1H-tetrazol-5-yl)-benzyloxy]-phenyl}-1-(2-cyclohexyl-ethyl)-5,6-difluoro-1H-benzoimidazole]
100	CCCCCn1c(-c2ccc(Cl)cc2OCc2ccc(-c3nnn[nH]3)cc2F)nc2cc(F)c(F)cc21 [Example 44, 2-{4-Chloro-2-[2-fluoro-4-(1H-tetrazol-5-yl)-benzyloxy]-phenyl}-5,6-difluoro-1-pentyl-1H-benzoimidazole]
100	Fc1cc2nc(-c3ccc(Cl)cc3OCc3ccc(-c4nnn[nH]4)cc3F)n(CC3CCCCO3)c2cc1F (stereo not drawn) [Example 45, 2-{4-Chloro-2-[2-fluoro-4-(1H-tetrazol-5-yl)-benzyloxy]-phenyl}-5,6-difluoro-1-(tetrahydro-pyran-2-ylmethyl)-1H-benzoimidazole]
400	CC(C)(C)Cn1c(-c2ccc(Cl)cc2OCc2ccc(-c3nnn[nH]3)cc2F)nc2cc(F)c(F)cc21 [Example 46, 2-{4-Chloro-2-[2-fluoro-4-(1H-tetrazol-5-yl)-benzyloxy]-phenyl}-1-(2,2-dimethyl-propyl)-5,6-difluoro-1H-benzoimidazole]
900	Fc1cc2nc(-c3ccc(Cl)cc3OCc3ccc(-c4nnn[nH]4)cc3F)n(CC3CCOCC3)c2cc1F [Example 47, 2-{4-Chloro-2-[2-fluoro-4-(1H-tetrazol-5-yl)-benzyloxy]-phenyl}-5,6-difluoro-1-(tetrahydro-pyran-4-ylmethyl)-1H-benzoimidazole]
400	Fc1cc2nc(-c3ccc(Cl)cc3OCc3ccccc3Cl)n(Cc3ccccc3)c2cc1F [Example 48, 1-Benzyl-2-[4-chloro-2-(2-chloro-benzyloxy)-phenyl]-5,6-difluoro-1H-benzoimidazole]
1100	Fc1cc2nc(-c3ccc(Cl)cc3OCC3CCCC3)n(Cc3ccccc3)c2cc1F [Example 49, 1-Benzyl-2-(4-chloro-2-cyclopentylmethoxy-phenyl)-5,6-difluoro-1H-benzoimidazole]
1900	Fc1cc2nc(-c3ccc(Cl)cc3OCC3CC3)n(Cc3ccccc3)c2cc1F [Example 50, 1-Benzyl-2-(4-chloro-2-cyclopropylmethoxy-phenyl)-5,6-difluoro-1H-benzoimidazole]
500	O=C(O)c1ccc(COc2cc(Cl)ccc2-c2nc3cc(F)c(F)cc3n2Cc2ccccc2)cc1 [Example 51, 4-[2-(1-Benzyl-5,6-difluoro-1H-benzoimidazol-2-yl)-5-chloro-phenoxymethyl]-benzoic acid]

Source: US8309581B2, “Benzimidazole derivatives” (Hoffmann-La Roche Inc., priority 2009, dated 2012)
